These results are taken from patent publication US6342602B1, “Aryl or heteroaryl amides of tetrahydronaphthalene, chroman, thichroman and 1,2,3,4-tetrahydroquinolinecarboxlic acids, having an electron withdrawing substituent in the aromatic or heteroaromatic moiety, having retinoid-like biological activity” (Allergan Sales, Inc., priority 1995, dated 2002).

Molecules are shown by their SMILES. Like-named read-outs stand apart in the source and are kept apart here.

In one test the target is T1, RXRα (Homo sapiens, UniProt P19793).
T1 construct: made in house; used as extract protein
T1 sequence (P19793 1-462): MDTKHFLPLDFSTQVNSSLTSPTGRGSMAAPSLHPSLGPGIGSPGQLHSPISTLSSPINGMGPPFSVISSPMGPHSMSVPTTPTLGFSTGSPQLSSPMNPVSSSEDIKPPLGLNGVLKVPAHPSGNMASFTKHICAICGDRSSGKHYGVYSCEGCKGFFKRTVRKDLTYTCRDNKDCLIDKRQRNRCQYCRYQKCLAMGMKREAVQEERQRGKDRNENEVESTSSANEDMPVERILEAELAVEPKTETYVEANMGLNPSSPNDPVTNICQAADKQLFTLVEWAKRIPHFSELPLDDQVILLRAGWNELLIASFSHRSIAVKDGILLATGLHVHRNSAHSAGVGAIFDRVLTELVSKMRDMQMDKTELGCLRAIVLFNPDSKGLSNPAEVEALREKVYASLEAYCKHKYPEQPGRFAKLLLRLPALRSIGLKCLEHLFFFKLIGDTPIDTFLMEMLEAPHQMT
Description: Ligand binding assay. As to conditions: receptor expressed in Baculovirus; competition with [3H] retinoic acid; Cheng-Prusoff from IC50. As for the experimental part:
(§1) A holoreceptor transactivation assay and a ligand binding assay which measure the ability of the compounds of the invention to bind to the several retinoid receptor subtypes, respectively, are described in published PCT Application No. WO WO93/11755 (particularly on pages 30-33 and 37-41) published on Jun. 24, 1993, the specification of which is also incorporated herein by reference. A description of the ligand binding assay is also provided below.
(§2) All binding assays were performed in a similar fashion. All six receptor types were derived from the expressed receptor type (RAR α, β, τ and RXR α, β, τ) expressed in Baculovirus. Stock solutions of all compounds were prepared as 10 mM ethanol solutions and serial dilutions carried out into 1:1 DMSO; ethanol. Assay buffers consisted of the following for all six receptor assays: 8% glycerol, 120 mM KCl, 8 mM Tris, 5 mM CHAPS 4 mM DTT and 0.24 mM PMSF, pH-7.4@room temperature.
(§3) All receptor biding assays were performed in the same manner. The final assay volume was 250 μl and contained from […] of extract protein depending on receptor being assayed along with 5 nM of [^3H) alltrans retinoic acid or 10 nM [^3H) 9-cis retinoic acid and varying concentrations of competing ligand at concentrations that ranged from 0-10^−5 M. The assays were formatted for a 96 well minitube system. Incubations were carried out at 4° C. until equilibrium was achieved. Non-specific binding was defined as that binding remaining in the presence of 1000 nM of the appropriate unlabeled retinoic acid isomer. At the end of the incubation period, 50 μl of 6.25% hydroxyapitite was added in the appropriate wash buffer. The wash buffer consisted of 100 mM KCl, 10 mM Tris and either 5 mM CHAPS (RXR α, β, τ) or 0.5% Triton X-100 (RAR α, β, τ). The mixture was vortexed and incubated for 10 minutes at 4° C., centrifuged and the supernatant removed. The hydroxyapitite was washed three more times with the appropriate wash buffer. The receptor-ligand complex was adsorbed by the hydroxyapitite. The amount of receptor-ligand complex was determined by liquid scintillation counting of hydroxyapitite pellet.
(§4) After correcting for non-specific binding, IC50 values were determined. […] The IC50 value was determined graphically from a loglogit plot of the data. The Kd values were determined by application of the ChengPrussof equation to the IC50 values, the labeled ligand concentration and the Kd of the labeled ligand.
(§5) The results of ligand binding assay are expressed in Kd numbers. (See Cheng et al. Biochemical Pharmacology Vol. 22 pp 3099-3108, expressly incorporated herein by reference.)

The next test concerns the target T2, RARΓ (Homo sapiens, UniProt P13631).
T2 construct: made in house; used as extract protein
T2 sequence (P13631 1-454): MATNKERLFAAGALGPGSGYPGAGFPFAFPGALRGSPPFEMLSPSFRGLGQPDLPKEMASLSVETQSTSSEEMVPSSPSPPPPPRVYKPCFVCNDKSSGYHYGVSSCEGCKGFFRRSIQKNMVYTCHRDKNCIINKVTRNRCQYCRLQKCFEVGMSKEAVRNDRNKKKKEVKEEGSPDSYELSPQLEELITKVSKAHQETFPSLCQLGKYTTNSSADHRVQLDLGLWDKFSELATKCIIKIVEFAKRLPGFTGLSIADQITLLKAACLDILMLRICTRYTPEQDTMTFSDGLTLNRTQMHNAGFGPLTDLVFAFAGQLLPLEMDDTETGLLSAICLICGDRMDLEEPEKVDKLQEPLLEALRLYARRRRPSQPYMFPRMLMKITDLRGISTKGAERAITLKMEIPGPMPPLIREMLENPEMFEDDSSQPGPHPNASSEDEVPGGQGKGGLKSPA
Description: Ligand binding assay. As for the experimental part:
as §1, §2, §3, §4, §5

The subject of another test is AML-193. Description: Cancer cell line assay, incorporation of 3H-thymidine. The test is classed as cell-based. Particulars: 10^−11 to 10^−6 molar concentration range, 96 hours. Here is the method: All trans-Retinoic acid (t-RA) (Sigma Chemicals Co., St. Louis, M.) was stored at −70° C. Prior to each experimet the compound was dissolved in 100% ethanol at 1 mM and diluted in culture medium immediately before use. All experiments were performed in subdued light. Controls were assayed using the same concentration of ethanol as present in the experimental plates and this concentration of diluent had no effect in either assay.
AML-193 was established from the blast cells classified as M5 Acute Monocyte Leukemia. The growth factor, […] (GM-CSF) was required to establish this cell line and growth factors are necessary for its continuous proliferation in chemically defined medium. AML-193 cells were grown and maintained in Iscove's modified Dulbeccous medium supplemented with 10% fetal bovine serum, glutamine and antibiotics with 5 μg/ml insulin (Sigma Chemical Co.) and 2 ng/ml rh GM-CSF (R and D Systems). The cells were diluted to a concentration of 3×10^5/ml twice a week.
ME-180 wells, harvested by trypsinization were plated in a 96 well flat bottom microtiter plate (Costar) at a density of 2,000 cells/well. The cultures were treated as described above for RPMI 8226 with the following exceptions. After incubation with thymidine the supernatant was carefully removed, and the cells were washed with a 0.5 mM solution of thymidine in phosphate buffered saline. ME180 cells were briefly treated with 50 μl of 2.5% trypsin to dislodge the cells from the plate. AML-193 cells were plated in a 96 well round bottom microtiter plate (Costar) at a density of 1,000 cells/well. To appropriate wells, retinoid test compounds were added at the final concentrations indicated for a final volume of 150 μl/well. The plates were incubated for 96 hours at 37° C. in a humidified atmosphere of 5% CO2 in air. Subsequently, 1 μCi of [5′-^3H]-thymidine (Amersham, U.K., 43 Ci/mmol specific activity) in 25 μl culture medium was added to each well and the cells were incubated for an additional 6 hours.
All cells lines were then processed as follows: the cellular DNA was precipitated with […] trichloroacetic acid onto glass fiber filter mats using a SKATRON multi-well cell harvester (Skatron Instruments, Sterling Va.). Radioactivity incorporated into DNA, as a direct measurement of cell growth, was measured by liquid scintillation counting. The numbers represent the mean disintegrations per minute of incorporated thymidine from triplicate wells±SEM.

[1] abbreviates: receptor expressed in Baculovirus, competition with [3H] retinoic acid, Cheng-Prusoff from IC50, read-out: Kd RARΓ.

Take `CC1(C)CC(C)(C)c2cc(C(=O)Nc3ccc(C(=O)O)c(F)c3)cc(I)c2O1` [Compound 20]: the dissociation constant (Kd) on RXRα and at RARΓ (setting [1]) was greater than 1 µM throughout. The “proliferation of the tumor cell line (incorporation of radioactive labeled thymidine)” value (“proliferation of the tumor cell line” for short) with AML-193 is given as “significant decrease in the proliferation”.
Consider `CC1(C)CC(C)(C)c2cc(C(=O)Nc3ccc(C(=O)O)c(F)c3)cc(C(F)(F)F)c2O1` [Compound 14], for which the Kd on RXRα and at RARΓ (setting [1]) was greater than 1 µM in each case. Also, in the test on AML-193, the “proliferation of the tumor cell line” value is on record as “significant decrease in the proliferation”.
As to `CC1(C)CCC(C)(C)c2cc(C(=O)Nc3cc(F)c(C(=O)O)c(F)c3)ccc21` [Compound 38], the equilibrium dissociation constant (Kd) at RXRα and on RARΓ (setting [1]) was greater than 1 µM in each case.
`CC1(C)CCC(C)(C)c2c1cc(C(=O)Nc1cc(F)c(C(=O)O)c(F)c1)c(O)c2Br` [Compound 36]: the dissociation constant (Kd) at RXRα and at RARΓ was greater than 1 µM in each case.
`CC1(C)CCC(C)(C)c2c(Br)cc(C(=O)Nc3ccc(C(=O)O)c(F)c3)cc21` [Compound 6]: the Kd at RXRα and on RARΓ (setting [1]) was greater than 1 µM each time. Moreover, in the test on AML-193, the “proliferation of the tumor cell line” value is recorded as “significant decrease in the proliferation”.
With `CC1(C)CC(C)(C)c2cc(C(=O)Nc3cc(F)c(C(=O)O)c(F)c3)cc(C(F)(F)F)c2O1` [Compound 18, 2,6-Difluoro-4-[(2′,2′,4′,4′-tetramethyl-8′-trifluoromethylchroman-6′-yl)carbamoyl]benzoic Acid], the Kd at RXRα and at RARΓ (setting [1]) was greater than 1 µM throughout.
Consider `CC1(C)CCC(C)(C)c2cc(C(=O)Nc3ccc(C(=O)O)c(F)c3)ccc21` [Compound 2], for which the dissociation constant (Kd) on RXRα and on RARΓ (setting [1]) was greater than 1 µM throughout.
In the case of `CC1(C)CCC(C)(C)c2cc(C(=O)Nc3ccc(C(=O)O)c(F)c3)c(O)cc21` [Compound 8], the Kd at RXRα and on RARΓ (setting [1]) was greater than 1 µM in each case. Further, the “proliferation of the tumor cell line” value in the test with AML-193 is given as “significant decrease in the proliferation”.
`CC1(C)CC(C)(C)c2cc(C(=O)Nc3ccc(C(=O)O)c(F)c3)cc(Br)c2O1` [Compound 12]: the dissociation constant Kd at RXRα and at RARΓ (setting [1]) was greater than 1 µM each time. Also, in the test on AML-193, the “proliferation of the tumor cell line” value was “significant decrease in the proliferation”.
On to `CC1(C)CCC(C)(C)c2cc(C(=S)Nc3ccc(C(=O)O)cc3)ccc21` [Compound 26], for which the equilibrium dissociation constant (Kd) at RXRα and on RARΓ (setting [1]) was greater than 1 µM throughout.
As for `CC1(C)CC(C)(C)c2cc(C(=O)Nc3ccc(C(=O)O)c(F)c3)cc(N=[N+]=[N-])c2O1` [Compound 16, 2-Fluoro-4-[(21′,2′,4′,4′-tetramethyl-8′-azidochroman-6′-yl)carbamoyl]benzoic Acid], the Kd at RXRα and at RARΓ (setting [1]) was greater than 1 µM in each case.
For `CC1(C)CC(C)(C)c2cc(C(=O)Nc3ccc(C(=O)O)c(F)c3)ccc2O1` [Compound 32], the dissociation constant (Kd) at RXRα and at RARΓ (setting [1]) was greater than 1 µM in each case.
Consider `CC1(C)CCC(C)(C)c2cc(C(=O)Nc3ccc(C(=O)O)cc3)c(F)cc21` [Compound 4], for which the dissociation constant Kd (usually the equilibrium constant for the complex coming apart) is greater than 1 µM at RXRα and 0.096 µM at RARΓ (setting [1]).
With `Cc1cc(C(=O)Nc2ccc(C(=O)O)c(F)c2)cc2c1OC(C)(C)CC2(C)C` [Compound 22], the dissociation constant (Kd) on RXRα and on RARΓ (setting [1]) was greater than 1 µM throughout.
